Like-named read-outs stand apart in the source and are kept apart here.
Columns and labels:
PmSiaT = molecular target: T1, PmSiaT (Proteus mirabilis, UniProt B4EZY7); test: nanoDSF thermal shift assay, PmSiaT; assay type: binding; conditions: for Average 1 / Average 2 / Average 3 / Replicate 1 / Replicate 2 / Replicate 3: PmSiaT Tm; for Average 1: average of experiment 1; for Average 2: average of experiment 2; for Average 3: average of experiment 3; for Replicate 1: experiment 1, second capillary; for Replicate 1 / Replicate 2 / Replicate 3 / Tm 1 / Tm2 / Tm 3 / Tm average overall / ΔTm at 1250 µM: 1.25 mM; for Replicate 2: experiment 2, second capillary; for Replicate 3: experiment 3, second capillary; for Tm 1 / ΔTm / Tm2 / Tm 3 / Tm average overall / ΔTm at 1250 µM: PmSiaT; for Tm 1: experiment 1, first capillary; for Tm2: experiment 2, first capillary; for Tm 3: experiment 3, first capillary; for Tm average overall / ΔTm at 1250 µM: three experiments; for ΔTm at 1250 µM: vs Neu5Ac, read-out: ΔTm average overall
T1 construct: made in house
T1 sequence (B4EZY7 1-496): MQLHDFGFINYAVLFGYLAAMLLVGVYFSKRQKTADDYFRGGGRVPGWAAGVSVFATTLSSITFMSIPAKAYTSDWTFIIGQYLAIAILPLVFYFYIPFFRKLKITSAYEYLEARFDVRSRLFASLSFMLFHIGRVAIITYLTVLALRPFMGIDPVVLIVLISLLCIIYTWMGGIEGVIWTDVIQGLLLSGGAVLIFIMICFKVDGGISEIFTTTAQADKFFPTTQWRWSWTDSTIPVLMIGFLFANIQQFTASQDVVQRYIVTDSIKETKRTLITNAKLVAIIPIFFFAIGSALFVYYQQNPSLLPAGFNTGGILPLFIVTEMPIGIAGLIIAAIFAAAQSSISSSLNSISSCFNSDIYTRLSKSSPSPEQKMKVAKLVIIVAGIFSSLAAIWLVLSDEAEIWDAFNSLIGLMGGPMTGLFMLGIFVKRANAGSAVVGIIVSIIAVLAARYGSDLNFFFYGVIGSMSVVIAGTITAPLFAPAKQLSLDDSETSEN
Procedure: (§1) Nano-differential scanning fluorimetry (nanoDSF) is a high-throughput method that relies on the thermal stabilization of the folded protein state by a bound ligand.[33]
(§2) The melting points of protein–inhibitor complexes were measured on a Prometheus NT.48 instrument from NanoTemper Technologies. Solutions containing the protein at 2 μM in phosphate buffered saline with 0.0174% (w/v) dodecylmaltoside (DDM) and the ligand at 1.25 mM were loaded onto standard capillaries by NanoTemper. The temperature was increased from 25 to 95 °C at a ramp rate of 1 °C/min. The fluorescence was recorded at 330 and 350 nm and as a ratio of the two wavelengths.
(§3) The intensity ratio and its first derivative were calculated using manufacturer’s software (PR.ThermControl, version 2.1.2).
(§4) The melting temperatures have been measured in 3 separate experiments. In each experiment, two capillaries were included per compound, having therefore 2 technical replicates per experiment. In the table all data is presented. Tm1 and Replicate 1 represent the two replicates of the first experiment. Average 1 is the average between Tm 1 and Replicate 1. ΔTm 1 is the thermal shift when compared to the Tm of Neu5Ac. This is calculated from Average 1. The ΔTm presented in the article are the ΔTm average overall, which represent the overall average of the averages from the three experiments. The standard deviation (SD) is calculated from the […]

SaSiaT = SaSiaT (Staphylococcus aureus, UniProt A0A0H2XJ46); test: nanoDSF thermal shift assay, SaSiaT; assay type: binding; conditions: for Average 1 / Average 2 / Average 3 / Replicate 1 / Replicate 2 / Replicate 3: SaSiaT Tm; for Average 1: average of experiment 1; for Average 2: average of experiment 2; for Average 3: average of experiment 3; for Replicate 1: experiment 1, second capillary; for Replicate 1 / Replicate 2 / Replicate 3 / Tm 1 / Tm2 / Tm 3 / Overall average (Tm): 1.25 mM; for Replicate 2: experiment 2, second capillary; for Replicate 3: experiment 3, second capillary; for Tm 1 / Tm2 / Tm 3 / Overall average (Tm): SaSiaT; for Tm 1: experiment 1, first capillary; for Tm2: experiment 2, first capillary; for Tm 3: experiment 3, first capillary; for Overall average (Tm): three experiments
Sequence of SaSiaT (A0A0H2XJ46 entry or part of it): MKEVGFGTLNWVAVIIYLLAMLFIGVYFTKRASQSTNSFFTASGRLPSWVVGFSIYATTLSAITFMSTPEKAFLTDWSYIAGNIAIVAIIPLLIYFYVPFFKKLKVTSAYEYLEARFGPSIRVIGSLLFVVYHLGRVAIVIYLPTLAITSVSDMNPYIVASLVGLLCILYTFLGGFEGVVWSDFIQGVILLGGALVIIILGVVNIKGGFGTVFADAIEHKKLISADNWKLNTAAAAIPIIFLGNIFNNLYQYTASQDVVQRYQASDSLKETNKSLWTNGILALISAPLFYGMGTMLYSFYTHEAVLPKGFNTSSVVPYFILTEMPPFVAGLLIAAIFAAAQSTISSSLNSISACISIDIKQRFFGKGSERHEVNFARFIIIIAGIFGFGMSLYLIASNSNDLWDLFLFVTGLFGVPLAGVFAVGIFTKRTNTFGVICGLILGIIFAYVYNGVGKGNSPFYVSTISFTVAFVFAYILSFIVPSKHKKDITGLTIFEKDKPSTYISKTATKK
Procedure: as §1, §2, §3, §4

[1] = experiment 1, vs Neu5Ac, read-out: ΔTm 1
[2] = experiment 2, vs Neu5Ac, read-out: ΔTm 2
[3] = experiment 3, vs Neu5Ac, read-out: ΔTm 3

Row | SMILES | Average 1 (PmSiaT) [°C] | Average 2 (PmSiaT) [°C] | Average 3 (PmSiaT) [°C] | Replicate 1 (PmSiaT) [°C] | Replicate 2 (PmSiaT) [°C] | Replicate 3 (PmSiaT) [°C] | Tm 1 (PmSiaT) [°C] | Tm2 (PmSiaT) [°C] | Tm 3 (PmSiaT) [°C] | Tm average overall (PmSiaT) [°C] | Average 1 (SaSiaT) [°C] | Average 2 (SaSiaT) [°C] | Average 3 (SaSiaT) [°C] | Replicate 1 (SaSiaT) [°C] | Replicate 2 (SaSiaT) [°C] | Replicate 3 (SaSiaT) [°C] | Tm 1 (SaSiaT) [°C] | Tm2 (SaSiaT) [°C] | Tm 3 (SaSiaT) [°C] | Overall average (Tm) (SaSiaT) [°C] | further results
1 | O=C(Cc1ccccc1)NC1C(O)CC(O)(C(=O)O)OC1C(O)C(O)CO (centres unmarked) [Compound 6e] | 45.4 | 46.2 | 46.0 | 45.5 | 46.0 | 45.9 | 45.2 | 46.3 | 46.1 | 45.8 | 51.2 | 51.0 | 51.4 | 51.3 | 51.1 | 51.1 | 51.2 | 51.0 | 51.8 | 51.2 | ΔTm (PmSiaT; [1]): -3.6 °C; ΔTm (PmSiaT; [2]): -3 °C; ΔTm (PmSiaT; [3]): -3.3 °C; ΔTm at 1250 µM (PmSiaT): -3.3 °C
2 | O=C(CCl)NC1C(O)CC(O)(C(=O)O)OC1C(O)C(O)CO (centres unmarked) [Compound 6g] | 49.8 | 49.9 | 49.5 | 49.7 | 49.9 | 49.5 | 49.9 | 49.9 | 49.5 | 49.7 | 49.0 | 49.2 | 49.3 | 49.0 | 49.0 | 48.9 | 49.0 | 49.4 | 49.7 | 49.2 | ΔTm (PmSiaT; [1]): 0.8 °C; ΔTm (PmSiaT; [2]): 0.7 °C; ΔTm (PmSiaT; [3]): 0.2 °C; ΔTm at 1250 µM (PmSiaT): 0.6 °C
3 | CC(=O)N[C@H]1[C@H]([C@H](O)[C@H](O)CO)OC(C(=O)O)=C[C@@H]1O [Compound 9, 2-deoxy-2,3-didehydro-N-acetylneuraminic acid, reference compound] | 45.9 | 46.2 | 46.2 | 45.7 | 46.1 | 46.3 | 46.1 | 46.3 | 46.2 | 46.1 | 45.1 | 45.8 | 45.9 | 45.2 | 46.4 | 46.4 | 45.0 | 45.2 | 45.4 | 45.6 | –
4 | CC(=O)NC1C(OCc2ccc(F)cc2)CC(O)(C(=O)O)OC1C(O)C(O)CO (centres unmarked) [Compound 3b] | 53.2 | 53.2 | 53.1 | 53.4 | 53.4 | 53.2 | 53.1 | 53.1 | 53.0 | 53.2 | 56.4 | 56.2 | 56.7 | 56.4 | 56.2 | 56.4 | 56.4 | 56.3 | 56.9 | 56.4 | ΔTm (PmSiaT; [1]): 4.2 °C; ΔTm (PmSiaT; [2]): 4 °C; ΔTm (PmSiaT; [3]): 3.8 °C; ΔTm at 1250 µM (PmSiaT): 4 °C
5 | CCC(=O)NC1C(O)CC(O)(C(=O)O)OC1C(O)C(O)CO (centres unmarked) [Compound 6a] | – | 46.8 | 46.7 | 46.8 | 46.8 | 46.6 | 46.8 | 46.8 | 46.7 | 46.8 | 40.8 | 41.9 | 42.2 | 40.9 | 41.8 | 42.1 | 40.8 | 42.0 | 42.3 | 41.6 | ΔTm (PmSiaT; [1]): -2.2 °C; ΔTm (PmSiaT; [2]): -2.4 °C; ΔTm (PmSiaT; [3]): -2.6 °C; ΔTm at 1250 µM (PmSiaT): -2.4 °C
6 | CC(=O)NC1C(O)CC(O)(C(=O)O)OC1C(O)C(O)CCl (centres unmarked) [Compound 8c] | 47.7 | 47.9 | 48.0 | 47.8 | 47.9 | 48.1 | 47.6 | 47.9 | 47.9 | 47.9 | 48.9 | 49.6 | 49.7 | 48.9 | 49.6 | 49.6 | 48.9 | 49.5 | 49.8 | 49.4 | ΔTm (PmSiaT; [1]): -1.3 °C; ΔTm (PmSiaT; [2]): -1.3 °C; ΔTm (PmSiaT; [3]): -1.3 °C; ΔTm at 1250 µM (PmSiaT): -1.3 °C
7 | CC(=O)NC1C(OCc2ccc(C#N)cc2)CC(O)(C(=O)O)OC1C(O)C(O)CO (centres unmarked) [Compound 3d] | 55.3 | 53.7 | 54.1 | 55.4 | 53.8 | 54.1 | 55.2 | 53.6 | 54.2 | 54.4 | 54.4 | 53.6 | 53.0 | 54.3 | 53.6 | 53.9 | 54.4 | 53.6 | 52.0 | 53.7 | ΔTm (PmSiaT; [1]): 6.3 °C; ΔTm (PmSiaT; [2]): 4.5 °C; ΔTm (PmSiaT; [3]): 4.8 °C; ΔTm at 1250 µM (PmSiaT): 5.2 °C
8 | CC(=O)NC1C(O)CC(O)(C(=O)O)OC1C(O)C(O)CN=[N+]=[N-] (centres unmarked) [Compound 8g] | 46.0 | 46.1 | 46.0 | 45.9 | 46.2 | 46.1 | 46.0 | 46.0 | 45.9 | 46.0 | 48.7 | 47.4 | 48.5 | 42.7 | 47.4 | 48.3 | – | 47.4 | 48.6 | 48.2 | –

— PMC9295122, “Sialic Acid Derivatives Inhibit SiaT Transporters and Delay Bacterial Growth” (ACS Chemical Biology, 2022)
